Reference: PubChem BioAssay (NCI)
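The compound was tested at five concentrations on cells cultured in 96-well plates, with a 48-hour exposure period. GI50 = concentration required for 50% inhibition of growth. TGI is the concentration that stops growth completely.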

Tests used:
Test in all cases: growth of human tumour cells (NCI), 48 h
[1] = test system: BT-549 breast
[2] = test system: CAKI-1 renal
[3] = test system: OVCAR-3 ovarian
[4] = test system: OVCAR-5 ovarian
[5] = test system: PC-3 prostate
[6] = test system: SF-268 CNS
[7] = test system: SF-539 CNS
[8] = test system: SR leukemia
[9] = test system: SW-620 colon
[10] = test system: UACC-257 melanoma

Row | SMILES | GI50 [1] [µM] | TGI [1] [µM] | GI50 [2] [µM] | TGI [2] [µM] | GI50 [3] [µM] | TGI [3] [µM] | GI50 [4] [µM] | TGI [4] [µM] | GI50 [5] [µM] | TGI [5] [µM] | GI50 [6] [µM] | TGI [6] [µM] | GI50 [7] [µM] | TGI [7] [µM] | GI50 [8] [µM] | TGI [8] [µM] | GI50 [9] [µM] | TGI [9] [µM] | GI50 [10] [µM] | TGI [10] [µM]
1 | CS(=O)(=O)CCn1c(=O)c(Oc2ccc(F)cc2F)cc2cnc(NC3CCOCC3)nc21 | > 25 | > 25 | > 25 | > 25 | > 25 | > 25 | > 25 | > 25 | > 25 | > 25 | > 25 | > 25 | > 25 | > 25 | > 25 | > 25 | > 25 | > 25 | > 25 | > 25
2 | CC(O)(CNS(=O)(=O)c1ccccc1)c1ccccc1 (stereo not drawn) |  | > 100 |  | > 100 |  | > 100 |  | > 100 |  | > 100 |  | > 100 |  |  |  | > 100 |  | > 100 |  | 
3 | O=S(=O)(O)c1cc(N=Nc2cc(S(=O)(=O)O)c3cccnc3c2O)ccc1/C=C/c1ccc(N=Nc2cc(S(=O)(=O)O)c3cccnc3c2O)cc1S(=O)(=O)O |  | > 100 |  | > 100 |  | > 100 |  | > 100 |  | > 100 |  | > 100 |  | > 100 |  | 51.1 |  | > 100 |  | > 100
4 | c1cc(-c2cn[nH]c2)cc(-c2cn[nH]c2)c1 |  |  |  | 83.9 |  | > 100 |  |  |  |  |  | > 100 |  | 55.4 |  | > 100 |  | > 100 |  | > 100
5 | COc1ccc(-c2nnc(N3CCN(C(=O)CN4CCN(c5ccc(Cl)cc5)CC4)CC3)nc2-c2ccc(OC)cc2)cc1 | 8.88 | 82.8 | 28.5 | > 100 | 28.7 | > 100 | > 100 | > 100 | 9.58 | > 100 | > 100 | > 100 | 15.1 | 74.8 | 31.5 | > 100 | 57.9 | > 100 | 59.4 | > 100
6 | Cc1nc(Nc2ccccc2)sc1C(=O)NNc1ccc([N+](=O)[O-])cc1[N+](=O)[O-] |  |  |  | > 100 |  | > 100 |  | > 100 |  |  |  | > 100 |  | > 100 |  | 65.7 |  | > 100 |  | > 100
7 | CN(C)CC1(Cc2ccccc2)CCC(Cc2ccccc2)C1=O (stereo not drawn) |  | 25.5 |  | 23.3 |  | 16.2 |  | 32.8 |  | 22.9 |  | 22.6 |  | 33.5 |  | 33.3 |  | 11.1 |  | 29.1
8 | C=C1CC2(CCCC3(CC(=C)C(=O)O3)C2(C)C)OC1=O (stereo not drawn) |  | 17 |  | 7.43 |  | 6.78 |  | 3.33 |  | 21.1 |  | 55.5 |  | 11.4 |  |  |  | 4.26 |  | 5.78
9 | O=S(=O)(NCCNc1cc(-c2cn(-c3ccccc3)nc2-c2cccc(O)c2)ccn1)c1ccc(Cl)cc1 | 2.06 | 7.65 | 4.46 | > 100 | 2.06 | 5.05 | 2.66 | 11 | 2.45 | 12 | 2.51 | 8.94 | 2.08 | 5.3 | 1.71 | 5.07 | 3.69 | 18.9 | 3.39 | 10.3
10 | CC(C)(C)OC(=O)CN1CCc2c(sc3ncnc(N/N=C/c4cccc5ccccc45)c23)C1 | 6.03 | > 33.3 | 3.3 | 18.7 | 1 | 3.92 | 3.34 | 8.41 | 2.04 | > 33.3 | 3.59 | 24.3 | 1.73 | 7.02 | 1.46 | 15.2 | 1.8 | 7.96 | 4.59 | 21.7
11 | Cc1cc(C)n(C(=O)c2nn(-c3ccc(Cl)cc3)cc2O)n1 | 2.19 | 26.3 | 4.23 | 42.3 | 12.7 | 87.7 | 4.98 | > 100 | 7.05 | > 100 | 4.13 | > 100 | 3.05 | 35.1 | > 100 | > 100 | 8.02 | > 100 | 16.6 | > 100
12 | Cn1c2ccccc2c(=O)c2c([N+](=O)[O-])ccc(NCCN)c21 |  |  |  | 25.9 |  | 27.2 |  | 26.9 |  |  |  | 26 |  | 20.8 |  | > 100 |  | 16.6 |  | 26.9
13 | C/C1=C/C(=O)O[C@@H]2C[C@@H](CC[C@H](C)/C=C\C=C\CC1)O[C@@](OCCc1ccccc1)([C@@H]1CSC(=O)N1)C2 | 0.0404 | 0.113 | 0.0222 | 0.0811 | 0.17 | 0.607 | 0.0554 | > 17.5 | 0.0754 | > 17.5 | 0.0784 | 0.377 | 0.0543 | > 17.5 | 0.379 | > 17.5 | 7.04 | > 17.5 | 0.175 | 17.3
14 | COc1cc2c([C@@H](OC(=O)c3ccccc3)c3ccc4c(c3)OCO4)nccc2c(OC)c1OC |  |  |  | > 100 |  | > 100 |  | > 100 |  |  |  | > 100 |  | > 100 |  | > 100 |  | > 100 |  | > 100
15 | COC(=O)NC(=O)c1cn(CCCOC(=O)CCCCCCCCC(=O)OCCCn2cc(C(=O)NC(=O)OC)c(=O)[nH]c2=O)c(=O)[nH]c1=O |  |  |  | > 100 |  | > 100 |  | > 100 |  |  |  | > 100 |  | > 100 |  | > 100 |  | > 100 |  | > 100
16 | CCCCCCCCCCCC(=O)c1c(O)cccc1O |  |  |  | 56.7 |  | 31.4 |  | 28.5 |  |  |  | 30.4 |  | 32.4 |  | 49 |  | 33.5 |  | 30.8
17 | Nc1ccc2ccc(NS(=O)(=O)N3CCCCC3)cc2c1 | 0.69 | > 84.3 | 0.584 | > 100 |  |  |  | > 100 | 1.28 | > 100 | 1.57 | > 100 |  |  | 0.215 | > 100 | 0.336 | > 100 | 12.9 | > 100

Row | SMILES | GI50 [1] [µM] | TGI [1] [µM] | GI50 [2] [µM] | TGI [2] [µM] | GI50 [3] [µM] | TGI [3] [µM] | GI50 [4] [µM] | TGI [4] [µM] | GI50 [5] [µM] | TGI [5] [µM] | GI50 [6] [µM] | TGI [6] [µM] | GI50 [7] [µM] | TGI [7] [µM] | GI50 [8] [µM] | TGI [8] [µM] | GI50 [9] [µM] | TGI [9] [µM] | GI50 [10] [µM] | TGI [10] [µM]
18 | COC1C(O)C(C)OC(OC2CC3CCC4C(CCC5(C)C(C6=CC(=O)OC6)CCC45O)C3(O)C(OC(C)=O)C2)C1O (stereo not drawn) |  | 2.02 |  | 3.43 |  | 3.38 |  | 5.87 |  | 8.77 |  | 2.54 |  | 1.95 |  |  |  | > 36.7 |  | 16.5
19 | C(=C\c1nccc2c1[nH]c1ccccc12)/c1ccccc1 | 2.22 | 10.2 |  |  | 2.31 | 6.65 | 3.04 | > 100 | 2.82 | > 100 | 5.23 | > 100 | 1.98 | 4.51 | 1.11 | 6.84 | 2.39 | 18.1 | 17.8 | 76.7
20 | CC(O)C(O)C(O)C(/C=N\Nc1ccccc1)=N/Nc1ccccc1 (stereo not drawn) |  | 29.4 |  | 11.1 |  | 40.4 |  | 27.5 |  | 49.6 |  | 24.5 |  | 28.3 |  | 41.9 |  | 25.8 |  | 
21 | COc1cc(C2=NN(c3ccc(S(N)(=O)=O)cc3)C(c3ccc(Cl)cc3)C2)cc(OC)c1OC (stereo not drawn) | 3.8 | 46.4 |  |  | 4.68 | > 100 | 3.69 | > 100 | 3.05 | > 100 | 6.86 | > 100 | 5.12 | > 100 | 4.37 | > 100 | 4.49 | > 100 | 9.5 | > 100
22 | COc1cc(NCC2COc3c(ccc(OC)c3OC)C2=O)c([N+](=O)[O-])cc1OC (stereo not drawn) |  |  |  | > 100 |  | > 100 |  | > 100 |  | > 100 |  | > 100 |  | > 100 |  | > 100 |  | > 100 |  | > 100
23 | Cc1cc(C)c2c(SCc3ccc(Cl)cc3Cl)nc(N)nc2n1 |  | > 100 |  | > 100 |  | 76.2 |  | > 100 |  | > 100 |  | > 100 |  |  |  | > 100 |  | > 100 |  | 38.2
24 | CCc1cccc(C(C)CC)c1NC(=O)C(=O)C(CC(=O)Nc1ccc(Cl)c(Cl)c1)C(=O)OC (stereo not drawn) |  |  |  | > 100 |  | > 100 |  | > 100 |  |  |  | > 100 |  | > 100 |  | > 100 |  | > 100 |  | > 100
25 | CCCCCCC#CC#Cc1cccc(=O)o1 | 0.556 | 2.7 | 3.4 | 9.2 | 2.04 | 4.8 | 2.25 | 4.95 | 2.67 | 8.36 | 2.69 | 11.9 | 3.19 | 12 |  |  | 0.974 | 2.78 | 2.21 | 7.87
26 | NCCP(=O)(O)O |  | > 100 |  | > 100 |  | > 100 |  | > 100 |  | > 100 |  | > 100 |  |  |  | > 100 |  | > 100 |  | > 100
27 | COc1ccc(C(=O)COc2cccc(/C=C3\CSc4ccc(Cl)cc4C3=O)c2)cc1 | 12.9 | 33.5 | 12.4 | 25.1 | 8.86 | 21.2 | 17 | 34.2 | 3.97 | 20.4 | 14.9 | 30.3 | 16.2 | 30.7 |  |  | 1.82 | 4.1 | 12.6 | 33.4
28 | CC(=O)c1cc2c(c3ccsc13)-c1ccccc1CC2 | 37 | > 100 | 29.4 | > 100 | 25.4 | > 100 | 39.4 | > 100 | 27.9 | > 100 | 43.4 | > 100 | 27.9 | > 100 |  |  | 33.7 | > 100 | 47.1 | > 100
29 | Cc1ccc(C2C3=C(N=c4s/c(=C/c5ccc(Br)cc5)c(=O)n42)c2ccc4ccccc4c2OCC3)cc1 (stereo not drawn) | > 100 | > 100 |  |  | > 100 | > 100 | > 100 | > 100 | > 100 | > 100 | > 100 | > 100 | > 100 | > 100 | > 100 | > 100 | > 100 | > 100 | 35.7 | > 100
30 | Cc1ccc2c(c1)O/C(=C\c1ccc([N+](=O)[O-])o1)C2=O | 1.82 | 3.47 | 1.41 | 2.94 | 1.53 | 2.86 | 2.4 | 4.75 | 1.75 | 5.15 | 1.91 | 5.03 |  |  | 0.168 | 0.799 | 0.296 | 1.27 | 1.54 | 3.31
31 | C1=C(c2ccccc2)SC=C(c2ccccc2)S1 |  | 84.8 |  | > 100 |  | > 100 |  | > 100 |  | > 100 |  | > 100 |  | > 100 |  |  |  | > 100 |  | > 100
32 | Oc1c(I)cc(-c2nc3ccccc3s2)cc1CN(Cc1ccccn1)Cc1ccccn1 | 0.394 | 29.8 | 0.413 | 2.47 | 0.534 | 11.7 | 0.928 | 53.2 | 0.308 | > 100 | 0.301 | 95.2 | 0.246 | 0.903 |  |  | 0.402 | 3.32 | 0.87 | > 100
33 | COc1cc(-c2cc(/C=C3\C(=O)Nc4ccccc43)[nH]n2)cc(OC)c1OC | 2.1 | 6.58 |  |  | 3.21 | 14.5 | 5.16 | 27.9 | 2.14 | 10 | 3.76 | 17.2 | 3.49 | 16.3 | 2.89 | 14.8 | 3.33 | 18.9 | 2.37 | 6.56
